Laboratory results reported in a melting point compilation (Tetko et al.; mined from patent text by program, amines drawn as free bases though some values may be those of a salt).

SMILES	melting point
O=C1NCc2c1c1c3cc(O)ccc3[nH]c1c1[nH]c3ccc(O)cc3c21	> 330 °C
CN(C)CCC1CCCCN1CCN(C)C(=O)N1c2ccccc2C(=O)Nc2cccnc21 (centres undefined)	114 to 116 °C
CCN(CC)CCNC(=O)c1cc(Cl)c(N)cc1OCCNC(C)=O	143 to 145 °C
COc1c(F)cccc1C(=O)Cl	71 to 73 °C
COc1ccc2c(n1)C1(CO2)C(=O)N(Cc2ccc(C(F)(F)F)o2)c2ccccc21 (centres undefined)	145 to 147 °C
CCCCCCCCOC(=O)n1c(-c2cscn2)nc2ccccc21	66 to 67.5 °C
N#CCn1c2ccccc2c2nc3ccccc3nc21	231 to 232 °C
CS(=O)(=O)N=C(NCCSCc1ccco1)Oc1ccccc1O	110 to 112 °C
O=C(O)Cc1ccc(NC(=O)CCCCCNC(=O)OCc2ccccc2)cc1	136 to 138 °C
ClCCN1CCC(=C(c2ccccc2)c2ccccc2)CC1	85 to 86 °C
CN1CCC(c2c[nH]c3ccc(NC(=O)c4ccc(Cl)cc4Cl)nc23)CC1	151 to 152 °C
Cc1ccc(-c2coc3c(C)c(C)cc(C)c23)cc1	112 to 113 °C
CCN(CC)c1nc(C)nc(N)n1	125 to 127 °C
O=c1c2c(cc3n1CCCS3)CCCC2	123 to 124 °C
CCn1cc(C(=O)O)c(=O)c2cc(F)c(N3CCN(CCO)CC3)c(F)c21	225 to 228 °C
Cc1cc2c(c(C)c1Br)C(c1ccc(C(C)C)cc1)CO2 (centres undefined)	90 to 91 °C
Cn1nc(-c2ccccc2S(N)(=O)=O)oc1=O	168 to 173 °C
CC(=O)C1=CC(C)(C)C=CC1	27 to 30 °C
Cc1cc2c(cc1Cl)N(C(=O)CN1CCN(c3ncccn3)CC1)c1ccccc1N(C)S2(=O)=O	180 to 182 °C
CCOC(=O)C1=C(C)Nc2nc(N3CCOCC3)nc(N3CCOCC3)c2C1c1cccnc1Cl (centres undefined)	185 °C
CCCOc1ccc(/C=C/c2nc3c(c(=O)n(CC)c(=O)n3CC)n2C)cc1	156 °C
COc1cc(-c2ccc(C(F)(F)F)cc2)c(C(C)=NOCc2ccc([N+](=O)[O-])cc2)cc1O	112 to 114 °C
N#CNC(=O)C=NNc1ccc(F)cc1	265 to 267 °C
CNC(=O)C(C)Oc1cc(Oc2nn(C)c(C(F)(F)F)c2Cl)ccc1[N+](=O)[O-] (centres undefined)	140 to 142 °C
Cn1c(=O)n(CC(=O)N(CCO)c2ccccc2)c2cnc(-c3ccccc3)nc21	231 to 233 °C

SMILES	melting point
COP(=O)(Nc1ccc([N+](=O)[O-])c(NCCc2ccccc2)c1)OC	128 °C
CCc1noc(-c2cn(-c3c(OCc4ccccc4)cccc3OCc3ccccc3)cn2)n1	149 to 150 °C
CC(=O)NCCC(=O)Nc1cccc(-c2cc(-c3ccc(Cl)cc3O)nc(NC(=O)c3cccs3)c2C#N)c1	209 to 210 °C
O=C(O)CCCCOc1ccccc1Cl	71 to 72 °C
CCC(C)OC(=O)SN(C(=O)N1CC2(C(=O)OC)CCc3ccccc3C2=N1)c1ccc(C(F)(F)F)cc1 (centres undefined)	125 to 126 °C
Cc1ccc(C(=O)C2=C(O)C(=O)N(c3ccc(C)nn3)C2c2cccc(C(F)(F)F)c2)cc1 (centres undefined)	232 °C
O=C(c1cc(C(F)(F)F)cc(C(F)(F)F)c1)N1CCN(C(=O)CN2CCC(O)(c3ccccc3)CC2)C(c2ccc(Cl)c(Cl)c2)C1 (racemic)	104 to 106 °C
Cc1c(CCO)c(=O)oc2c(O)c(O)ccc12	221 to 222 °C
COc1cc2c(=O)n(CC3CCCO3)c3c4cc5c(cc4ncc3c2cc1OC)OCO5 (centres undefined)	270 to 273 °C
Cc1sc(Cc2ccccc2)c(-c2ccc(-c3ccc(OS(=O)(=O)c4ccc(C(=O)O)c(O)c4)cc3)cc2)c1C	173 to 175 °C
N#Cc1cncc(-c2cccc(OCc3ccccc3)c2)c1Nc1ccc2[nH]ccc2c1	165 to 166 °C
CCOCc1cc2cc(Cl)ccc2oc1=Nc1ccc(C)cc1	76 to 77 °C
COC(=O)C(CCSC)NCC(=O)Nc1cccc2c1C(=O)c1c(NC(=O)CNC(CCSC)C(=O)OC)cccc1C2=O (centres undefined)	126 to 127 °C
COc1cc(N2CCOCC2)ccc1Nc1nc(Nc2ccc3c(c2OC)CCCC(=O)N3)ncc1Cl	248 to 249 °C
Cc1sc(-c2ccccc2)nc1-c1ccc(Cl)cc1	90 to 91 °C
CCOC(=O)C(CC)=C(C)NC(=O)Nc1cc(C(=O)OC(C)C)c(Cl)cc1F	112 to 115 °C
O=C1CCCc2c1c1cccc(Cl)c1n2Cc1ccccc1	161 to 162 °C
COc1ccc(CCN(C)CCCNc2c(Cl)cn[nH]c2=O)cc1OC	89 to 90 °C
COc1ccc2c(c1)C(C(Cl)(Cl)Cl)OC(C(Cl)(Cl)Cl)O2 (centres undefined)	105 to 107 °C
COc1ccccc1C1(Cc2ccccc2)C(=O)N(C)c2ccccc21 (centres undefined)	174 to 176 °C
Cc1cc(C)cc(NC(=O)Cc2ccc(OC3(C(=O)N[C@@H](C)C(=O)O)CCCC3)cc2)c1	90 to 91 °C
CCCCCCc1cc2c(cc1OCCCC(=O)O)C(=O)CC2	88 °C
CCCOc1ccc(-c2csc(-c3ccccc3Cl)c2CC(=O)N=C(N)N)cc1	111 to 113 °C
Cn1c(CC#N)ccc1C(=O)c1cccs1	132 to 133 °C
O=C(O)CCc1ccc(C(=O)NCc2ccccn2)cc1	83.8 °C

SMILES	melting point
COC(=O)CS(=O)(=O)c1ccc(OC)c(OC)c1	81 to 83 °C
CCN(CC)c1ccc(C2OC(C)(C)N=C2c2ccccc2)cc1 (centres undefined)	104 to 105 °C
COC(=O)c1ccc(-n2c(C)nc3cc(C#N)ccc32)cc1	179 to 181 °C
O=C(c1ccc(Cl)cc1)N(c1ccccc1)c1ccc(O)cc1	224 to 225 °C
O=C(Nc1cccc2c1ncc1c(=O)[nH]cnc12)c1c(Cl)cccc1Cl	> 250 °C
C=CCn1c(=O)c2ccccc2n2c(CCCl)nnc12	142 to 144 °C
CCOC(=O)c1ccc(/C=C(\C)C=O)s1	98 °C
CCC(CC)c1ccc(Cl)c2nc(Nc3cnc(OC)cc3C)n(CCCCO)c12	146 to 147 °C
COc1cc2nc(N3CCN(c4ccc(O)nn4)CC3)nc(N)c2cc1OC	296 to 297 °C
Cc1oc(-c2ccccc2)nc1COc1ccc(CON=C(CCCCC(=O)NS(C)(=O)=O)c2ccccc2)cc1	130 to 132 °C
CCn1c(C2CCCO2)nc2c(N)nc(OCCc3ccccc3)nc21 (centres undefined)	121 to 123 °C
CC1N=C(c2ccccc2)c2cc(Br)ccc2NC1=O (centres undefined)	210 to 212 °C
COc1ccc(S(=O)(=O)C(C)(Cc2ccc(OCCN3CCCCC3)cc2)C(=O)NO)cc1 (centres undefined)	98 °C
CC(=O)SC/C(=C/c1ccccc1)C(=O)O	57 °C
O=C1c2ccccc2CN1CCSc1ccncc1	86 to 87 °C
COc1ccc(S(=O)(=O)N(Cc2nnnn2C)c2ccc(Cl)cc2Cc2c(F)cccc2F)cc1OC	136 °C
CNc1nnc(-c2ccc3ncn(-c4ccc(SC)cc4)c3c2)o1	224 to 225 °C
O=c1oc(-c2ccc(OCCc3ccccc3)cc2)cc(O)c1SCCc1ccccc1	103 to 106 °C
COc1cc(OC)c(C(=O)CCCCCl)cc1N	87 to 88 °C
CCCCCCCCCCc1ccc2c(c1)-n1c(C)nnc1C(C)N=C2c1ccccc1 (centres undefined)	111 to 112 °C
CCOc1ccc(-c2c(O)c3ccc(Cl)cc3[nH]c2=O)cc1	> 320 °C
C=C(C)c1cc(-c2ccc(OCCNS(C)(=O)=O)cc2)n(-c2ccc(OC)nc2)n1	96 to 99 °C
CC(=O)OC1=C(c2nnn(Cc3ccccc3)n2)N(C)S(=O)(=O)c2ccccc21	173 °C
CNc1coc2ccccc2c1=S	134 °C
CCCCCCCCCCCCCCC(CCCCCCCCCCCCCC)C(=O)O	73.5 to 75 °C

SMILES	melting point
N=c1sc2cc(OC(F)(F)F)ccc2n1CCCO	106 °C
CCCCSCC(=O)c1ccc2c(c1)n(C)c(=O)n2C	80 to 81 °C
CNC(=O)C(=O)CCCCCCSc1nc2ccccc2s1	83 to 84 °C
CCCCC(=O)CC(=O)c1ccc(C2CCC(CC)CC2)cc1 (centres undefined)	90 °C
O=C(NN=Cc1ccc(Cl)cc1)c1cccnc1	188 to 190 °C
Clc1cc(-c2ccccc2)ccn1	70 to 72 °C
C[C@]12CCC(=O)N[C@@H]1CCc1cc(Sc3ccccc3)ccc12	183 to 185 °C
N#CCCN1CCC(C2c3ccccc3C=Cc3ccccc32)CC1	165 to 168 °C
CCOC(C)OCC(C)C1CCC2C3CC=C4CC(O)CC(O)C4(C)C3CCC12C (centres undefined)	124 to 126 °C
Brc1cccc(C2Cc3cnc(Nc4ccc(CCNCc5ccccc5)cc4)nc3-c3ccccc32)c1 (centres undefined)	98 to 100 °C
N#Cc1cc(C(O)CNC2CCCC2)ccc1N (centres undefined)	158 to 160 °C
O=Cc1ccc(OCc2ccccc2)c2c1OCO2	81 to 82 °C
CP(=O)(O)C[C@@H](O)CN	221 to 222 °C
Cc1c(NC(=O)c2ccc(OC[C@@H]3CCCO3)cc2)ccc2cc(CNCC(C)(C)C)n(C)c12	201 °C
COc1ccccc1Oc1c(Cl)nc(-c2cccc(OCc3ccccc3)c2)nc1NS(=O)(=O)c1ccc(C)cn1	176 to 180 °C
CCNC(=NC#N)NCCSCc1csc(NC(=N)N)n1	181 to 182 °C
CS(=O)(=O)NCCCn1c(-c2ccc(Br)cc2)csc1=Nc1ccccc1	128 to 134 °C
O=C1Nc2cc(C(F)(F)F)ccc2N2CCN(CCc3ccccn3)CC12 (centres undefined)	194 to 196 °C
Nc1ccccc1SCC(C(=O)O)c1ccc(C(F)(F)F)cc1 (centres undefined)	138 °C
CCOC(=O)c1cc(=O)c2c(OCCOc3ccc([N+](=O)[O-])cc3)cccc2o1	158 to 161 °C
O=C(Nc1ccc(C(=O)N2Cc3cccn3Cc3ccccc32)cc1)c1ccccc1C(F)(F)F	226 to 228 °C
CC1(C)OC[C@H](COn2cnc3c(Cl)nc(NC=O)nc32)O1	145 to 148 °C
N=C(Nc1cc(Cl)cc(NC(=O)C=Cc2ccccc2Cl)c1)c1ccc(NCc2ccccn2)cc1	119 to 122 °C
CCOC(=O)c1ccccc1OCCCCCCCCCCC(=O)CCCCOc1ccc(Cl)cc1	95 to 96 °C
